Laboratory results reported in US10113155B2, “Steviol glycosyltransferase and gene encoding same” (SUNTORY HOLDINGS LIMITED, priority 2012, dated 2018).

Experiments:
[1] = biological target: T1, UGT73E1 homologous protein 1 (Stevia rebaudiana, UniProt Q6VAA9); assay: Enzyme activity of UGT73E1 homologous protein 1: glucosylation of sugar acceptor substrates, LC-MS analysis; type: biochemical; conditions: for products found in the reaction solution with UGT73E1 homologous protein 1: 2 mM UDP-glucose, 0.1 mM sugar acceptor substrate, potassium phosphate buffer pH 7.0, 30° C., 1 hour
T1 construct: designed to carry the open reading frame of the UGT73E1 homologous protein 1 gene in frame with a His tag; made in house; host or cells: E. coli BL21(DE3)
T1 sequence (Q6VAA9 whole entry H50D/D106H/L131W/P152K/L157P/I160M/V199L/A305T/L422S): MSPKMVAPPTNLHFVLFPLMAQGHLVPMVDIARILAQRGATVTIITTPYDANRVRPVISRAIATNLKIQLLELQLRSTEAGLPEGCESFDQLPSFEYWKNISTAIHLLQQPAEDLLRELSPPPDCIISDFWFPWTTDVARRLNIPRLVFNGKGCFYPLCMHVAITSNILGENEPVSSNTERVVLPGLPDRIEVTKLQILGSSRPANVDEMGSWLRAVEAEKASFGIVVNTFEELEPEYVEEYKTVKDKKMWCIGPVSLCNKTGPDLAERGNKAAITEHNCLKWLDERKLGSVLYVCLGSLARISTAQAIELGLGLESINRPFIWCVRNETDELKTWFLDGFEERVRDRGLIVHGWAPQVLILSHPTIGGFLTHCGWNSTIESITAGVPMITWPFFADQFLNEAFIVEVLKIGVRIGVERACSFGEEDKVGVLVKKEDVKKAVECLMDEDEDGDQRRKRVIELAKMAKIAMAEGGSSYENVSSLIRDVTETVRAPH
Protocol: Standard enzyme reaction conditions are as follows. A reaction solution (2 mM UDP-glucose, 0.1 mM sugar acceptor substrate (steviol), 100 mM potassium phosphate buffer (pH 7.0), 25 μl purified UGT73E1 homologous protein 1 enzyme solution) was prepared in a volume of 50 μl with distilled water and reacted at 30° C. for 1 hour. The enzyme reaction solution (5 μl) was analyzed by LC-MS under the following conditions.
Column: Waters Sunfire C18 3.5 um (2.0 mm I.D.×20 mm)
Mobile phase: A: MilliQ Water (+0.05% formic acid), B: MeCN
Gradient: linear concentration gradient of B from 15% to 55% over 20 minutes
Flow rate: 0.2 ml per minute

[2] = reported in previous studies (Non-patent Document 2); cited from earlier work

Molecule | products found in the reaction solution with UGT73E1 homologous protein 1 [1] | stevioside peak in the reaction solution with UGT73E1 homologous protein 1 ([1]; substrate reacted with UGT73E1 homologous protein 1) | glycosylation activity on steviol glycosides [2]
C=C1C[C@@]23CC[C@H]4[C@@](C)(CCC[C@@]4(C)C(=O)O)[C@@H]2CC[C@]1(O)C3 (single isomer, unassigned) [steviol] | four types of products were newly found | – | –
C=C1C[C@@]23CC[C@H]4[C@@](C)(CCC[C@@]4(C)C(=O)O[C@@H]4O[C@H](CO)[C@@H](O)[C@H](O)[C@H]4O)[C@@H]2CC[C@]1(O[C@@H]1O[C@H](CO)[C@@H](O)[C@H](O)[C@H]1O)C3 [rubusoside] | Compound Z which appears to be a triglucoside of steviol was newly generated | no significant stevioside peak can be found | –
C=C1C[C@@]23CC[C@H]4[C@@](C)(CCC[C@@]4(C)C(=O)O)[C@@H]2CC[C@]1(O[C@@H]1O[C@H](CO)[C@@H](O)[C@H](O)[C@H]1O[C@@H]1O[C@H](CO)[C@@H](O)[C@H](O)[C@H]1O)C3 [steviolbioside] | a product which appears to be stevioside (peak F) was also detected | – | –
C=C1C[C@@]23CC[C@H]4[C@@](C)(CCC[C@@]4(C)C(=O)O)[C@@H]2CC[C@]1(O[C@@H]1O[C@H](CO)[C@@H](O)[C@H](O)[C@H]1O)C3 [steviolmonoside] | two peaks (peak E and peak F) were newly obtained | – | –
UGT73E1: reported stevia glycosyltransferase, 98% identical to UGT73E1 homologous protein 1 (protein, UniProt Q6VAA9 1-495, looked up) UDP-glycosyltransferase 73E1: MSPKMVAPPTNLHFVLFPLMAQGHLVPMVDIARILAQRGATVTIITTPYHANRVRPVISRAIATNLKIQLLELQLRSTEAGLPEGCESFDQLPSFEYWKNISTAIDLLQQPAEDLLRELSPPPDCIISDFLFPWTTDVARRLNIPRLVFNGPGCFYLLCIHVAITSNILGENEPVSSNTERVVLPGLPDRIEVTKLQIVGSSRPANVDEMGSWLRAVEAEKASFGIVVNTFEELEPEYVEEYKTVKDKKMWCIGPVSLCNKTGPDLAERGNKAAITEHNCLKWLDERKLGSVLYVCLGSLARISAAQAIELGLGLESINRPFIWCVRNETDELKTWFLDGFEERVRDRGLIVHGWAPQVLILSHPTIGGFLTHCGWNSTIESITAGVPMITWPFFADQFLNEAFIVEVLKIGVRIGVERACLFGEEDKVGVLVKKEDVKKAVECLMDEDEDGDQRRKRVIELAKMAKIAMAEGGSSYENVSSLIRDVTETVRAPH | – | – | no glycosylation activity on steviol glycosides
